In ChEMBL document CHEMBL5223149, “The Emerging Landscape of Small-Molecule Therapeutics for the Treatment of Huntington's Disease” (J Med Chem, 2022):
Values after ≈ are worked out from the molar mass of the structure shown.

Assays:
[1] = Solubility of the compound; format: physicochemical
in vivo = details: mouse, po
[2] = target: T1, Protein-glutamine gamma-glutamyltransferase (Homo sapiens, UniProt P21980); assay: Inhibition of TG2 (unknown origin)
T1 sequence (P21980 whole entry): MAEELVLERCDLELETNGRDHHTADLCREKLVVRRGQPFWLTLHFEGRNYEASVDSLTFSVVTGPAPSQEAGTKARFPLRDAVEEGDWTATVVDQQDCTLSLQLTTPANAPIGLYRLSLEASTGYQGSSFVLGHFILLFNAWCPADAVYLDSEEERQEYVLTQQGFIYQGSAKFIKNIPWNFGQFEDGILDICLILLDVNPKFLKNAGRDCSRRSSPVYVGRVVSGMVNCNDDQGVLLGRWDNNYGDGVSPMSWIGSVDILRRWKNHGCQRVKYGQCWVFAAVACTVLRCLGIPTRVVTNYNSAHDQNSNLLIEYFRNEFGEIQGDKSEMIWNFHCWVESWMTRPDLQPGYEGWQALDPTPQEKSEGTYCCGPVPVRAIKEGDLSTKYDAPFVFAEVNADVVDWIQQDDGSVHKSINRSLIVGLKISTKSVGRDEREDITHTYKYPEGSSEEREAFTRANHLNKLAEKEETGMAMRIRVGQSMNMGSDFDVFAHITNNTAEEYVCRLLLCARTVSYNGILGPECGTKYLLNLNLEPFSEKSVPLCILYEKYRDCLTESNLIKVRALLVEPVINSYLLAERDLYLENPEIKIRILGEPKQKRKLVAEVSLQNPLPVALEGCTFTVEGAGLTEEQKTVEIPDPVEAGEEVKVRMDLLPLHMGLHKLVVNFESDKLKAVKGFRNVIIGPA

| SMILES | solubility [1] [µg/mL] | bioavailability (in vivo) [%] | IC50 [2] [nM] |
| --- | --- | --- | --- |
| O=c1cc(N2CCOCC2)cc(N2CCCCC[C@@H]2Cc2ccccc2)[nH]1 | 58 (≈ 158 µM) | 68 |  |
| C=CC(=O)NCCCCC(NC(=O)OCc1ccccc1)C(=O)N1CCN(c2ccccc2Cl)CC1 (stereo not drawn) |  |  | 62 |
